± gives the standard deviation of the averaged measurements.
Assays:
NILOTINIB = compound: Cc1cn(-c2cc(NC(=O)c3ccc(C)c(Nc4nccc(-c5cccnc5)n4)c3)cc(C(F)(F)F)c2)cn1 [NILOTINIB]; test: surviving fraction relative to DMSO-only wells; higher = less growth inhibition; conditions: exposure time: 5 days
Method in brief: (§1)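 For each tumour cell line, log-phase cells were put into 384-well plates at 250–500 cells per well, then after 24 hours exposed continuously for five days to inhibitors at 0.5, 1, 5, 10, 50, 100, 500 and 1000 nM. Viability was assessed by CellTiter-Glo luminescence, with surviving fraction expressed relative to the median of DMSO-only wells. Lines were screened three times and retained only if replicate Pearson r exceeded 0.7 and median Z' exceeded 0.3.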

AFIMOXIFENE = compound: CC/C(=C(\c1ccc(O)cc1)c1ccc(OCCN(C)C)cc1)c1ccccc1 [AFIMOXIFENE]; test: as above; conditions: exposure time: 5 days
Method in brief: as §1

| Test System | surviving fraction (NILOTINIB; 0.5 nM) | surviving fraction (NILOTINIB; 1 nM) | surviving fraction (NILOTINIB; 5 nM) | surviving fraction (NILOTINIB; 10 nM) | surviving fraction (NILOTINIB; 50 nM) | surviving fraction (NILOTINIB; 100 nM) | surviving fraction (NILOTINIB; 500 nM) | surviving fraction (NILOTINIB; 1000 nM) | surviving fraction (AFIMOXIFENE; 0.5 nM) | surviving fraction (AFIMOXIFENE; 1 nM) | surviving fraction (AFIMOXIFENE; 5 nM) | surviving fraction (AFIMOXIFENE; 10 nM) | surviving fraction (AFIMOXIFENE; 50 nM) | surviving fraction (AFIMOXIFENE; 100 nM) | surviving fraction (AFIMOXIFENE; 500 nM) | surviving fraction (AFIMOXIFENE; 1000 nM) |
| --- | --- | --- | --- | --- | --- | --- | --- | --- | --- | --- | --- | --- | --- | --- | --- | --- |
| SG27 HEADNECK | 1.13 ± 0.03 | 1.09 ± 0.087 | 1.02 ± 0.066 | 1.06 ± 0.063 | 1.11 ± 0.21 | 1.04 ± 0.056 | 1.17 ± 0.091 | 1.23 ± 0.051 | 1.09 ± 0.16 | 1.06 ± 0.14 | 1.05 ± 0.023 | 1.02 ± 0.059 | 1.16 ± 0.063 | 1 ± 0.23 | 1.21 ± 0.11 | 1.1 ± 0.078 |
| SG28 HEADNECK | 1.07 ± 0.044 | 1.05 ± 0.025 | 1.07 ± 0.062 | 1.07 ± 0.042 | 0.782 ± 0.042 | 0.907 ± 0.068 | 0.84 ± 0.013 | 0.903 ± 0.067 | 1.208 ± 0.0021 | 1.04 ± 0.057 | 1.1 ± 0.15 | 0.965 ± 0.1 | 1.14 ± 0.1 | 0.985 ± 0.04 | 1.12 ± 0.04 | 1.05 ± 0.088 |
| SG31 HEADNECK | 1.24 ± 0.13 | 1.2 ± 0.13 | 1.08 ± 0.11 | 1.24 ± 0.21 | 1.14 ± 0.081 | 1.26 ± 0.17 | 1.02 ± 0.15 | 1.16 ± 0.13 | 1.4 ± 0.15 | 1.21 ± 0.07 | 1.18 ± 0.16 | 1.06 ± 0.095 | 1.07 ± 0.15 | 1.09 ± 0.051 | 1.08 ± 0.099 | – |
| SG32 HEADNECK | 0.984 ± 0.025 | 0.986 ± 0.062 | 1.16 ± 0.12 | 1.24 ± 0.26 | 0.823 ± 0.21 | 0.864 ± 0.16 | 0.866 ± 0.039 | 0.834 ± 0.12 | 1.09 ± 0.33 | 1.93 ± 1.3 | 1.26 ± 0.11 | 1.18 ± 0.25 | 1.09 ± 0.093 | 0.982 ± 0.053 | 1.12 ± 0.087 | 1.21 ± 0.2 |
| SG43 HEADNECK | 1.19 ± 0.17 | 1.12 ± 0.25 | 1.05 ± 0.13 | 1.05 ± 0.055 | 1.66 ± 0.17 | 1.76 ± 0.32 | 1.93 ± 0.23 | 1.98 ± 0.2 | 0.934 ± 0.082 | 1.06 ± 0.26 | 1.14 ± 0.34 | 0.825 ± 0.14 | 0.903 ± 0.016 | 1 ± 0.14 | 1.16 ± 0.12 | 0.927 ± 0.13 |
| SIHA CERVIX | 1.03 ± 0.029 | 1.02 ± 0.029 | 1 ± 0.024 | 1.11 ± 0.04 | 1.09 ± 0.036 | 1.061 ± 0.0087 | 1.05 ± 0.055 | 1.03 ± 0.037 | 1.1 ± 0.029 | 1.07 ± 0.051 | 1.09 ± 0.072 | 1.19 ± 0.031 | 1.15 ± 0.06 | 1.21 ± 0.032 | 1.13 ± 0.062 | 1.09 ± 0.058 |
| SJSA1 BONE | 1.73 ± 0.13 | 1.67 ± 0.1 | 1.65 ± 0.08 | 1.802 ± 0.014 | 1.56 ± 0.1 | 1.69 ± 0.04 | 1.63 ± 0.074 | 1.77 ± 0.044 | 1.6 ± 0.021 | 1.74 ± 0.059 | 1.65 ± 0.083 | 1.74 ± 0.087 | 1.78 ± 0.027 | 1.52 ± 0.05 | 1.79 ± 0.059 | 1.27 ± 0.068 |
| SKBR3 BREAST | 1.01 ± 0.13 | 1.02 ± 0.074 | 1 ± 0.037 | 0.994 ± 0.13 | 0.731 ± 0.097 | 0.826 ± 0.18 | 0.744 ± 0.061 | 0.775 ± 0.076 | 1.16 ± 0.077 | 1.1 ± 0.16 | 1.16 ± 0.11 | 1.12 ± 0.16 | 1.17 ± 0.13 | 1.06 ± 0.19 | 1.16 ± 0.12 | 0.923 ± 0.12 |
| SNU475 LIVER | 1.05 ± 0.028 | 1 ± 0.036 | 1.01 ± 0.031 | 1.04 ± 0.017 | 0.941 ± 0.026 | 0.939 ± 0.03 | 0.953 ± 0.024 | 0.858 ± 0.076 | 1.06 ± 0.024 | 1.09 ± 0.055 | 1.03 ± 0.016 | 1.04 ± 0.057 | 1.01 ± 0.022 | 1.07 ± 0.034 | 1.01 ± 0.054 | 1.07 ± 0.062 |
| SUM44 BREAST | 1.03 ± 0.19 | 1.04 ± 0.21 | 1.08 ± 0.23 | 1.07 ± 0.15 | 0.958 ± 0.012 | 0.934 ± 0.059 | 0.943 ± 0.064 | 0.932 ± 0.083 | 1.17 ± 0.34 | 1.22 ± 0.34 | 1.2 ± 0.26 | 1.2 ± 0.39 | 1.3 ± 0.43 | 1.19 ± 0.36 | 1.13 ± 0.29 | 1.08 ± 0.32 |
| SUM149 BREAST | 0.884 ± 0.092 | 0.895 ± 0.024 | 0.971 ± 0.057 | 0.833 ± 0.072 | 0.898 ± 0.053 | 0.786 ± 0.061 | 0.872 ± 0.071 | 0.833 ± 0.053 | 1.12 ± 0.094 | 1.02 ± 0.1 | 1.03 ± 0.078 | 1.03 ± 0.14 | 0.861 ± 0.031 | 0.911 ± 0.076 | 1.01 ± 0.11 | 0.868 ± 0.032 |
| SUM149.B1*.S BREAST | 1.09 ± 0.026 | 1.08 ± 0.051 | 1.163 ± 0.0038 | 1.12 ± 0.031 | 1.1 ± 0.046 | 1.13 ± 0.018 | 1.18 ± 0.035 | 1.11 ± 0.036 | 1.17 ± 0.043 | 1.1 ± 0.022 | 1.14 ± 0.065 | 1.16 ± 0.087 | 1.18 ± 0.051 | 1.16 ± 0.099 | 1.14 ± 0.07 | 1.2 ± 0.034 |
| SUM159 BREAST | 1.1 ± 0.039 | 1.1 ± 0.021 | 1.11 ± 0.021 | 1.09 ± 0.032 | 1.06 ± 0.023 | 1.077 ± 0.0068 | 1.055 ± 0.0095 | 1.06 ± 0.016 | 1.12 ± 0.024 | 1.12 ± 0.028 | 1.12 ± 0.026 | 1.11 ± 0.013 | 1.09 ± 0.025 | 1.13 ± 0.023 | 1.114 ± 0.01 | 1.06 ± 0.016 |
| SYO1 SYNOVIAL | 0.9541 ± 0.0069 | 0.979 ± 0.064 | 0.97 ± 0.062 | 0.974 ± 0.036 | 0.936 ± 0.036 | 0.976 ± 0.056 | 0.805 ± 0.062 | 0.743 ± 0.032 | 0.993 ± 0.023 | 1.01 ± 0.04 | 1.04 ± 0.013 | 1.03 ± 0.072 | 0.954 ± 0.035 | 0.982 ± 0.028 | 0.939 ± 0.023 | 1.04 ± 0.087 |
| T47D BREAST | 1.02 ± 0.041 | 1.065 ± 0.0097 | 1.07 ± 0.025 | 1.04 ± 0.045 | 1.07 ± 0.051 | 1.06 ± 0.026 | 1.05 ± 0.041 | 1.08 ± 0.038 | 1.06 ± 0.052 | 1.11 ± 0.032 | 0.955 ± 0.0067 | 0.98 ± 0.048 | 0.95 ± 0.032 | 0.958 ± 0.034 | 0.888 ± 0.024 | 0.883 ± 0.037 |
| U2OS BONE | 1.03 ± 0.032 | 1.02 ± 0.037 | 1.11 ± 0.032 | 1.11 ± 0.06 | 1.07 ± 0.059 | 1.13 ± 0.088 | 1.11 ± 0.095 | 1.09 ± 0.095 | 1.06 ± 0.056 | 1.07 ± 0.035 | 1.08 ± 0.024 | 1.1 ± 0.022 | 1.12 ± 0.015 | 1.1 ± 0.017 | 1.08 ± 0.057 | 1.01 ± 0.021 |
| VCAP PROSTATE | 0.999 ± 0.1 | 1.03 ± 0.088 | 1.16 ± 0.13 | 1.06 ± 0.076 | 1.02 ± 0.075 | 0.966 ± 0.073 | 0.952 ± 0.14 | 0.862 ± 0.067 | 0.993 ± 0.093 | 1.06 ± 0.1 | 1.07 ± 0.065 | 1.11 ± 0.098 | 1.12 ± 0.11 | 1.09 ± 0.019 | 1.07 ± 0.17 | 0.941 ± 0.075 |
| VP229 BREAST | 1.24 ± 0.14 | 1.12 ± 0.11 | 1.04 ± 0.075 | 1.18 ± 0.24 | 1.05 ± 0.041 | 1.08 ± 0.094 | 1.28 ± 0.04 | 1.12 ± 0.059 | 1.25 ± 0.37 | 1.2 ± 0.13 | 1.09 ± 0.08 | 1.16 ± 0.13 | 1.14 ± 0.07 | 1.16 ± 0.061 | 0.989 ± 0.21 | 1 ± 0.13 |
| YAMATO SYNOVIAL | 1.18 ± 0.14 | 1.22 ± 0.016 | 1.28 ± 0.064 | 1.26 ± 0.1 | 1 ± 0.05 | 0.94 ± 0.096 | 0.771 ± 0.024 | 0.658 ± 0.031 | 1.22 ± 0.14 | 1.27 ± 0.022 | 1.37 ± 0.14 | 1.4 ± 0.037 | 1.23 ± 0.14 | 1.28 ± 0.096 | 1.23 ± 0.066 | 1.31 ± 0.14 |
| ZR751 BREAST | 1.05 ± 0.13 | 1.01 ± 0.11 | 1.069 ± 0.0042 | 1.03 ± 0.14 | 0.895 ± 0.03 | 0.834 ± 0.14 | 0.826 ± 0.058 | 0.66 ± 0.073 | 1.13 ± 0.23 | 1.21 ± 0.18 | 1.09 ± 0.21 | 1.31 ± 0.19 | 1.09 ± 0.22 | 1.07 ± 0.17 | 1.03 ± 0.19 | 0.993 ± 0.084 |

From the supplement of paper PMC6045584
